In US6441195B1, “Substituted sulphonylamino(thio) carbonyl compounds” (Bayer Aktiengesellschaft, priority 1995, dated 2002):

How the values were obtained:
Assay type in all cases: in vivo
Lolium = assay: Pre-emergence test/Greenhouse, Lolium; conditions: after three weeks
Method in brief: (§1)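 Seeds sown in normal soil were watered about 24 h later with an aqueous emulsion of compound (solvent plus emulsifier), keeping water volume per area constant so dose is set by application rate per unit area. Damage was rated after three weeks as % versus untreated control (0% = no action).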

Ambrosia = assay: Pre-emergence test/Greenhouse, Ambrosia; conditions: after three weeks
Method in brief: as §1

Soya beans = assay: Pre-emergence test/Greenhouse, Soya beans; conditions: in vivo
Method: To produce a suitable preparation of the active compound, 1 part by weight of active compound is mixed with the stated amount of solvent, the stated amount of emulsifier is added and the concentrate is diluted with water to the desired concentration.
Seeds of the test plants are sown in normal soil. After about 24 hours, the soil is watered with the preparation of active compound. Advantageously, the amount of water per unit area is kept constant. The active compound concentration in the preparation is not important, only the active compound appliation rate per unit area matters.
After three weeks, the degree of damage to the plants is rated in % damage in comparison to the development of the untreated control.
0%=no action (like untreated control)

Matricaria = assay: Pre-emergence test/Greenhouse, Matricaria; conditions: after three weeks
Method in brief: as §1

weeds = assay: Pre-emergence test (greenhouse), activity against weeds; conditions: in words
Method in brief: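 Compound formulated in acetone with alkylaryl polyglycol ether emulsifier, diluted in water, and watered onto soil about 24 h after sowing, dosed by application rate per unit area. Damage rated after three weeks as % versus untreated control (0% = no action).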

Poa = assay: Pre-emergence test/Greenhouse, Poa; conditions: after three weeks
Method in brief: as §1

Sorghum = assay: Pre-emergence test/Greenhouse, Sorghum; conditions: after three weeks
Method in brief: as §1

Solanum = assay: Pre-emergence test/Greenhouse, Solanum; conditions: after three weeks
Method in brief: as §1

Maize = assay: Pre-emergence test/Greenhouse, Maize; conditions: in vivo
Method in brief: as §1

SMILES | degree of damage to the plants (% damage vs untreated control), Soya beans (Soya beans) | activity against weeds (weeds) | degree of damage to the plants (% damage vs untreated control), Lolium (Lolium; 125 g of ai./ha) | degree of damage to the plants (% damage vs untreated control), Ambrosia (Ambrosia; 125 g of ai./ha) | degree of damage to the plants (% damage vs untreated control), Matricaria (Matricaria; 125 g of ai./ha) | degree of damage to the plants (% damage vs untreated control), Poa (Poa; 125 g of ai./ha) | degree of damage to the plants (% damage vs untreated control), Maize (Maize) | degree of damage to the plants (% damage vs untreated control), Sorghum (Sorghum; 125 g of ai./ha) | degree of damage to the plants (% damage vs untreated control), Solanum (Solanum; 125 g of ai./ha) | degree of damage to the plants (% damage vs untreated control), Lolium (Lolium; 60 g of ai./ha) | degree of damage to the plants (% damage vs untreated control), Sorghum (Sorghum; 60 g of ai./ha) | degree of damage to the plants (% damage vs untreated control), Solanum (Solanum; 60 g of ai./ha) | also measured
CCCOc1nn(C(=O)NS(=O)(=O)c2c(C)cccc2C(=O)OC(C)C)c(=O)n1C [Example 17] | 0% | very strong activity against weeds |  |  |  |  |  |  |  |  |  |  | degree of damage to the plants (% damage vs untreated control), Lolium (Lolium; 30 g of ai./ha): 80%; degree of damage to the plants (% damage vs untreated control), Ambrosia (Ambrosia; 30 g of ai./ha): 95%; degree of damage to the plants (% damage vs untreated control), Matricaria (Matricaria; 30 g of ai./ha): 95%; degree of damage to the plants (% damage vs untreated control), Poa (Poa; 30 g of ai./ha): 95%; degree of damage to the plants (% damage vs untreated control), Sorghum (Sorghum; 30 g of ai./ha): 60%; degree of damage to the plants (% damage vs untreated control), Solanum (Solanum; 30 g of ai./ha): 95%
CCCOC(=O)c1cccc(C)c1S(=O)(=O)NC(=O)n1nc(OC)n(C)c1=O [Example 20] | 0% | very strong activity against weeds | 95% | 95% | 95% | 95% | 10% | 90% | 95% |  |  |  | 
Cc1nc(C(=O)NS(=O)(=O)c2c(C)cccc2C(=O)OC(C)C)no1 [Example 12] | 0% | very strong activity against weeds | 80% | 95% | 95% | 80% | 0% | 60% | 95% |  |  |  | 
CCCOC(=O)c1cccc(Cl)c1S(=O)(=O)NC(=O)n1nc(OCC)n(C)c1=O [Example 134] | 20% | very strong activity against weeds |  |  |  |  | 0% |  |  |  |  |  | degree of damage to the plants (% damage vs untreated control), Lolium (Lolium; 500 g of ai./ha): 95%; degree of damage to the plants (% damage vs untreated control), Ambrosia (Ambrosia; 500 g of ai./ha): 80%; degree of damage to the plants (% damage vs untreated control), Matricaria (Matricaria; 500 g of ai./ha): 90%; degree of damage to the plants (% damage vs untreated control), Poa (Poa; 500 g of ai./ha): 90%; degree of damage to the plants (% damage vs untreated control), Sorghum (Sorghum; 500 g of ai./ha): 70%; degree of damage to the plants (% damage vs untreated control), Solanum (Solanum; 500 g of ai./ha): 95%
C#CCSc1nn(C(=O)NS(=O)(=O)c2c(C)csc2C(=O)OC)c(=O)n1C [Example 51] | 30% | very strong activity against weeds | 80% | 95% | 95% | 80% | 0% | 80% | 95% |  |  |  | 
CCOc1nn(C(=O)NS(=O)(=O)c2c(C)cccc2C(=O)OC(C)C)c(=O)n1CC [Example 43] | 10% | very strong activity against weeds |  |  |  |  |  |  |  | 95% | 80% | 95% | degree of damage to the plants (% damage vs untreated control), Ambrosia (Ambrosia; 60 g of ai./ha): 95%; degree of damage to the plants (% damage vs untreated control), Matricaria (Matricaria; 60 g of ai./ha): 95%; degree of damage to the plants (% damage vs untreated control), Poa (Poa; 60 g of ai./ha): 95%
COC(=O)c1cccc(C)c1S(=O)(=O)NC(=O)n1nc(OCC(F)(F)F)n(C)c1=O [Example 143] | 0% | very strong activity against weeds |  |  |  |  | 20% |  |  | 90% | 90% | 90% | degree of damage to the plants (% damage vs untreated control), Ambrosia (Ambrosia; 60 g of ai./ha): 80%; degree of damage to the plants (% damage vs untreated control), Poa (Poa; 60 g of ai./ha): 90%
COC(=O)c1cccc(C)c1S(=O)(=O)NC(=O)n1nc(SCCF)n(C)c1=O [Example 152] | 20% | very strong activity against weeds | 95% | 95% | 80% | 95% |  | 95% | 95% |  |  |  | 
CCOn1c(CC)nn(C(=O)NS(=O)(=O)c2c(C)cccc2C(=O)OC)c1=O [Example 155] | 40% | very strong activity against weeds |  |  |  |  |  |  |  | 95% | 95% | 95% | degree of damage to the plants (% damage vs untreated control), Ambrosia (Ambrosia; 60 g of ai./ha): 90%; degree of damage to the plants (% damage vs untreated control), Matricaria (Matricaria; 60 g of ai./ha): 80%; degree of damage to the plants (% damage vs untreated control), Poa (Poa; 60 g of ai./ha): 95%
CCCOC(=O)c1cccc(C)c1S(=O)(=O)NC(=O)n1nc(OC(C)C)n(C)c1=O [Example 23] | 0% | very strong activity against weeds |  | 90% | 95% | 80% | 0% | 60% | 90% |  |  |  | 
COC(=O)c1cccc(C)c1S(=O)(=O)NC(=O)n1nc(OCC2CC2)n(C)c1=O [Example 167] | 30% | very strong activity against weeds |  |  |  |  |  |  |  | 80% | 95% | 90% | degree of damage to the plants (% damage vs untreated control), Ambrosia (Ambrosia; 60 g of ai./ha): 90%; degree of damage to the plants (% damage vs untreated control), Matricaria (Matricaria; 60 g of ai./ha): 95%; degree of damage to the plants (% damage vs untreated control), Poa (Poa; 60 g of ai./ha): 95%
CCOc1nn(C(=O)NS(=O)(=O)c2c(C)csc2C(=O)OC(C)C)c(=O)n1C [Example 76] | 30% | very strong activity against weeds |  |  |  |  | 0% |  |  | 95% | 95% | 95% | degree of damage to the plants (% damage vs untreated control), Matricaria (Matricaria; 60 g of ai./ha): 100%
COc1nn(C(=O)NS(=O)(=O)c2c(C)cccc2C(=O)OC(C)C)c(=O)n1C [Example 16] | 0% | very strong activity against weeds |  |  |  |  |  |  |  |  |  |  | degree of damage to the plants (% damage vs untreated control), Lolium (Lolium; 30 g of ai./ha): 95%; degree of damage to the plants (% damage vs untreated control), Ambrosia (Ambrosia; 30 g of ai./ha): 95%; degree of damage to the plants (% damage vs untreated control), Matricaria (Matricaria; 30 g of ai./ha): 95%; degree of damage to the plants (% damage vs untreated control), Poa (Poa; 30 g of ai./ha): 95%; degree of damage to the plants (% damage vs untreated control), Sorghum (Sorghum; 30 g of ai./ha): 90%; degree of damage to the plants (% damage vs untreated control), Solanum (Solanum; 30 g of ai./ha): 95%
COC(=O)c1cccc(C)c1S(=O)(=O)NC(=O)n1nc(SCC(F)(F)F)n(C)c1=O [Example 150] | 10% | very strong activity against weeds | 80% | 70% | 80% | 90% |  | 80% | 80% |  |  |  | 
COC(=O)c1cccc(OC)c1S(=O)(=O)NC(=O)n1nc(OC(C)C)n(C2CC2)c1=O [Example 135] | 40% | very strong activity against weeds | 95% | 90% | 90% | 95% |  | 90% | 95% |  |  |  | 
COC(=O)c1cccc(C)c1S(=O)(=O)NC(=O)n1nc(OCC2CC2)n(C2CC2)c1=O [Example 172] | 60% | very strong activity against weeds | 90% | 90% | 95% | 95% |  | 90% | 95% |  |  |  | 
